# Source: patent publication US4835252A, “Vasoactive intestinal peptide analogs” (The Salk Institute Biotechnology/Industrial Associates, Inc., priority 1987, dated 1989)
# pIC50: −log10 of the molar value. No end group written: not given here.
# Experiments:
# [1] = biological target: VIP receptors in rat lung membrane
# Description: Radioreceptor assays were carried out to determine the affinities of analogs of Example I for VIP receptors in rat lung membrane, following Leroux et al., Endocrinology 114, 1506-1512 (1984).
# The following buffers were prepared:
# Buffer A: 250 mM sucrose, 5 mM MgCl2, 25 mM Tris, pH 7.4
# Buffer B: 5 mM MgCl2, 25 mM Tris, pH 7.4
# Buffer C: 25 mM Tris, 5 mM MgCl2, 1 mg/ml bacitracin, 2 mg/ml bovine serum albumin ("BSA"), pH 7.4
# Phenylmethylsulfonyl fluoride ("PMSF") was added, to a final concentration of 1 mM, to the buffers immediately prior to their use.
# ^125 I-labeled, human VIP (^125 I-VIP) was purchased from New England Nuclear (Boston, Mass., U.S.A.). The peptide as purchased was diluted to 10^-5 Ci/ml with Buffer C and stored in 25 ul or 50 ul aliquots at -20° C., which were subsequently diluted with Buffer C, as described below, for the assays.
# Rat lung membrane was prepared for the assay as follows, following Leroux et al., supra: Five female Sprague-Dawley rats (200-250 g) were sacrificed and their hearts perfused with iced, phosphate-buffered saline (PBS) through the right atrium (approximately 30 ml PBS per rat). The lungs, which were whitened, were then removed and placed directly in iced PBS and any blood was rinsed from the tissue. The lung tissue was then transferred to a weighing device on ice; blood vessels, fat and the like were removed from the tissue; and the tissue was blotted and weighed. The lung tissue was then transferred to a 50 cm^3 Falcon tube with 2 ml of Buffer A per g lung tissue (approximately 25 ml Buffer A) and homogenized at 4° C. 1 minute in a polytron (Brinkmann Instruments Co., Westbury, N.Y., U.S.A.) and then with a glass/teflon homogenizer (approximately 5-6 strokes). The homogenate was filtered through two layers of cheesecloth, and the filtrate was then transferred to tubes for centrifugation at 30,000×g for 10 minutes. The pellets were then resuspended in approximately 70 ml of Buffer B using a glass/teflon homogenizer and the resulting suspensions were again centrifuged at 30,000×g for ten minutes. The resulting pellets were resuspended in 50 ml of Buffer B using a glass/teflon homogenizer. The suspension was divided into 1.0 ml aliquots in microfuge tubes, which were quickly frozen and stored on dry ice until use.
# When used, an aliquot of suspension was thawed and microfuged at 4° C. for several minutes to pellet suspended material. The supernatant was carefully removed and the pellet resuspended in 1 ml of Buffer C.
# Prior to use of a VIP receptor-containing suspension in an assay, the protein concentration was adjusted to 2 mg/ml by addition of Buffer C. Then 100 ul of this suspension (2 mg/ml) was combined with 100 ul of solution of ^125 I-VIP, 100 ul of solution of the VIP or analog thereof being assayed and 200 ul of Buffer C; consequently, the concentration of protein from the rat lung VIP receptor preparations used in the assays was 0.4 mg/ml.
# In the radioreceptor assays, the ability of analog to displace ^125 I-VIP from binding in the receptor preparation was measured by a standard procedure. For each analog, and naturally occurring human VIP as standard, a series of solutions, of 500 ul total volume in Buffer C, containing various concentrations of analog or standard (between about 10^-11 M and 10^-6 M), ^125 I-VIP at 100 cpm/ul (about 2×10^-10 M), and receptor preparation (0.4 mg protein/ml) were assayed.
# [2] = tested on: dispersed guinea pig pancreatic acinar cells; experiment: Amylase-release assay with dispersed pancreatic acinar cells; type: cell-based; conditions: ED50 for the human VIP standard divided by ED50 for the analog; 30 minutes at 37° C.
# Description: The bioactivity of analogs of Example I, chicken VIP, guinea pig VIP, and human VIP without amidation at the carboxy-terminus was determined, relative to that of naturally occurring human VIP, by an amylase-release assay employing dispersed guinea pig pancreatic acinar cells. The assay was essentially that described by Peikin et al., Am. J. Physiol. 235, E743-E749 (1978).
# For the assays conducted each day, dispersed acinar cells, free of debris, were freshly prepared from a pancreas of a male or female guinea pig (120-150 gm), following generally the method described by Peikin et al., supra.
# The procedure employed a "standard incubation medium," which consisted of 95 mM NaCl; 6 mM KCl; 2.5 mM NaH2 PO4; 5 mM each of sodium pyruvate, sodium fumarate and sodium glutamate; 0.5 mM CaCl2, 1.0 mM MgCl2, 11.5 mM glucose, 0.05 mg/ml glutamine; amino acids and vitamius from Eagle's Minimum Essential Medium at their concentration in such Eagle's Medium; 25 mM HEPES; 0.08 mg/ml soybean trypsin inhibitor (Calbiochem); pH 7.4.
# The animal was sacrificed, its pancreas removed and the pancreas trimmed of fat, blood vessels, duodenum and the like. With a syringe with a 25 gauge needle, 10.0 ml of collagenase solution (standard incubation medium with 0.2 mg/ml C. histolyticum collagenase and 2 mg/ml BSA (Fraction V) (both from Calbiochem, San Diego, California, U.S.A.)) was injected into the pancreas, which was then transferred to a 25 ml flask, gassed with 100% O2, and shaken on a shaker as rapidly as possible for 10 minutes at 37° C. Then the liquid was poured off and replaced with another 5.0 ml of collagenase solution, and the gassing with 100% O2 and shaking for 10 minutes at 37° C. were repeated. The replacement of liquid, gassing with 100% O2 and shaking at 37° C. were again repeated. If, by visual inspection, digestion appeared to be incomplete, vigorous shaking by hand with 1 minute incubation at 37° C. were repeated until digestion was complete. The mass was then broken up further by passing chunks through a large bore serological pipette, and then a small bore pipette. Very large chunks, fur and debris were removed with a long Pasteur pipette. Then half of the resulting acinar cell suspension was placed into each of two 15 ml clear, polystyrene tubes, each containing 4.0 ml of 4.0% BSA solution (standard incubation medium with 40 mg/ml BSA (Fraction V) and 2 mM, rather than 0.5 mM, CaCl2). Both combinations were mixed thoroughly and debris was again removed. The resulting suspensions were spun at medium speed in a tabletop centrifuge for 30 seconds, the supernatants were discarded, and the pellets were resuspended in 4.0 ml of 4.0% BSA and 4.0 ml of 0.2% BSA solution (standard suspension medium with 2 mg/ml BSA (Fraction V) and 2 mM, rather than 0.5 mM, CaCl2), the suspension was again cleaned of debris, and then spun as above with the tabletop centrifuge. The supernatants were discarded and the pellets again washed with 4.0 ml of 4% BSA solution and repelleted as above with the tabletop centrifuge. Again, the supernatants were discarded and the pellets were carried into one 250 ml Erlenmeyer flask, to which 50.0 ml of 1% BSA solution (standard incubation medium with 10 mg/ml BSA (Fraction V) and 5 mM theophylline) had been added. When the cells were not used immediately, the suspension was gassed with 100% O2. The preparation was acceptable for use in an assay only if the cells were fine and well dispersed and there was nothing visible in the preparation other than cells. […]
# [3] = Stability against proteolytic degradation in crude rat-lung homogenate; conditions: 10^-5 M peptide in crude rat lung homogenate, 37° C., intact peptide by HPLC
# Description: The stability of naturally occurring, human VIP and various analogs described in Example I was assessed by determining their resistance to degradation when incubated with a crude rat-lung homogenate.
# For the assay, the lungs were taken from a female Sprague-Dawley rat and were perfused with ice-cold phosphate-buffered saline, as described in Example II. The whitened lungs were polytroned and then homogenized in Degradation Assay Buffer (25 mM Tris, 5 mM MgCl2, pH 7.4), and the homogenate was filtered through cheesecloth. The filtrate was then diluted to a final volume of 500 ml with Degradation Assay Buffer, to yield the crude lung homogenate.
# Resistance to degradation was measured by determining the half-life of the human VIP or analog in the crude lung homogenate. To determine these half-lives, the human VIP or analog was added to 1 ml of the crude homogenate to a concentration of 10^-5 M, and the mixture was incubated at 37° C. After incubation for the desired time period, the sample was placed in a 100° C. bath and boiled for 5 minutes, and then acidified with glacial acetic acid (10% final volume) and, finally, cooled rapidly by being placed on dry ice. The sample was then microfuged at 4° C. for 15 minutes, and the supernatant analysized for peptide content by HPLC.
HALF-LIFE [3] [min],RELATIVE IC50 [1],Compound,"pIC50 ([1]; read-out: concentration required to displace half of the 125I-VIP / occupy half the receptor sites, rat lung membrane receptor preparation at 0.4 mg protein/ml)",Potency (Amylase Release Assay) [2]
,20,"HSDALFTDTYTRLRKQMAMKKYLNSVLN-NH2 [Guinea Pig VIP, reference compound]",,0.05
,1.4,"HSDAVFTDNYSRFRKQMAVKKYLNSVLT-NH2 [Chicken VIP, reference compound]",,0.5
,86,"HSDAVFTDNYSRYRRQMAVKKYLNSVLT-NH2 [Analog VII, HSDAVFTDNYSRYRRQMAVKKYLNSVLT-(NH2)i]",,1.0 × 10^-3

# The remaining lines, values behind:
Compound,HALF-LIFE [3] [min],RELATIVE IC50 [1],"pIC50 ([1]; read-out: concentration required to displace half of the 125I-VIP / occupy half the receptor sites, rat lung membrane receptor preparation at 0.4 mg protein/ml)",Potency (Amylase Release Assay) [2]
"CC[C@H](C)[C@H](NC(=O)[C@H](CO)NC(=O)[C@H](CC(N)=O)NC(=O)[C@H](CC(C)C)NC(=O)[C@H](Cc1ccc(O)cc1)NC(=O)[C@H](CCCCN)NC(=O)[C@H](CCCCN)NC(=O)[C@@H](NC(=O)[C@H](C)NC(=O)[C@H](CCSC)NC(=O)[C@H](CCC(N)=O)NC(=O)[C@H](CCCCN)NC(=O)[C@H](CCCNC(=N)N)NC(=O)[C@H](CC(C)C)NC(=O)[C@H](CCCNC(=N)N)NC(=O)[C@@H](NC(=O)[C@H](Cc1ccc(O)cc1)NC(=O)[C@H](CC(N)=O)NC(=O)[C@H](CC(=O)O)NC(=O)[C@@H](NC(=O)[C@H](Cc1ccccc1)NC(=O)[C@@H](NC(=O)[C@H](C)NC(=O)[C@H](CC(=O)O)NC(=O)[C@H](CO)NC(=O)[C@@H](N)Cc1c[nH]cn1)C(C)C)[C@@H](C)O)[C@@H](C)O)C(C)C)C(=O)N[C@@H](CC(C)C)C(=O)N[C@@H](CC(N)=O)C(N)=O [Human VIP, HSDAVFTDNYTRLRKQMAVKKYLNSILN-NH2, reference compound]",16,,~9.30,1.0
CC[C@H](C)[C@H](NC(=O)[C@H](CO)NC(=O)[C@H](CC(N)=O)NC(=O)[C@H](CC(C)C)NC(=O)[C@H](Cc1ccc(O)cc1)NC(=O)[C@H](CCCCN)NC(=O)[C@H](CCCCN)NC(=O)[C@@H](NC(=O)[C@H](C)NC(=O)[C@H](CCSC)NC(=O)[C@H](CCC(N)=O)NC(=O)[C@H](CCCCN)NC(=O)[C@H](CCCNC(=N)N)NC(=O)[C@H](CC(C)C)NC(=O)[C@H](CCCNC(=N)N)NC(=O)[C@@H](NC(=O)[C@H](Cc1ccc(O)cc1)NC(=O)[C@H](CC(N)=O)NC(=O)[C@H](CC(=O)O)NC(=O)[C@@H](NC(=O)[C@H](Cc1ccccc1)NC(=O)[C@@H](NC(=O)[C@H](C)NC(=O)[C@H](CC(=O)O)NC(=O)[C@H](CO)NC(=O)[C@@H](N)Cc1c[nH]cn1)C(C)C)[C@@H](C)O)[C@@H](C)O)C(C)C)C(=O)N[C@@H](CC(C)C)C(=O)N[C@@H](CC(N)=O)C(=O)O [reference compound],,,,0.4
"H-HSDAVFSDSYSRFRRSMAVRRYLSNVLT-NH2 [Analog V, HSDAVFSDSYSRFRRSMAVRRYLSNVLT-(NH2)i]",2.5,4.2,,0.2
"HSDAVFTDNYSRFRKQMAVRRFVNSVLT-NH2 [Analog IX, HSDAVFTDNYSRFRKQMAVRRFVNSVLT-(NH2)i]",,175,,7 × 10^-4
"HSDAVYSDSFRSYRSRVALSRFVRNVVT-NH2 [Analog III, HSDAVYSDSFRSYRSRVALSRFVRNVVT-(NH2)i]",4,2350,,1.0 × 10^-3
"HSDAVYSDSFSRYRRSVALRRFVSNVVT-NH2 [Analog I, HSDAVYSDSFSRYRRSVALRRFVSNVVT-(NH2)i]",4,140,,5 × 10^-4
"HSDAVYSDSFSRYRSRVALSRFVRNVVT-NH2 [Analog II, HSDAVYSDSFSRYRSRVALSRFVRNVVT-(NH2)i]",7.5,550,,1 × 10^-4
"HSDAVYTDNFSRYRKQVALKKFVNSVVT-NH2 [Analog IV, HSDAVYTDNFSRYRKQVALKKFVNSVVT-(NH2)i]",5,1040,,4.4 × 10^-3
